According to US12617797B2, “Substituted pyrazolo [1,5-a]pyrimidines having multimodal activity against pain” (ESTEVE PHARMACEUTICALS, S.A., priority 2020, dated 2026):

Experiments:
[1] = biological target: Human α2δ-1 subunit of Cav2.2 calcium channel (Homo sapiens, UniProt P54289); assay: Human α2δ-1 subunit of Cav2.2 calcium channel assay ([3H]-gabapentin binding); conditions: binding to the α2δ-1 subunit of voltage-gated calcium channels expressed as Ki; + also covers inhibition between 1% and 50%
Description: Biological Activity Pharmacological Study Human α2δ-1 Subunit of Cav2.2 Calcium Channel Assay
Human α2δ-1 enriched membranes (2.5 μg) were incubated with 15 nM of radiolabeled [^3H]-Gabapentin in assay buffer containing Hepes-KOH 10 mM, pH 7.4. NSB (non specific binding) was measured by adding 10 μM pregabalin. The binding of the test compound was measured at either one concentration (% inhibition at 1 or 10 μM) or five different concentrations to determine affinity values (Ki). After 60 min incubation at 27° C., binding reaction was terminated by filtering through Multiscreen GF/C (Millipore) presoaked in 0.5% polyethyleneimine in Vacuum Manifold Station, followed by 3 washes with ice-cold filtration buffer containing 50 mM Tris-HCl, pH 7.4. Filter plates were dried at 60° C. for 1 h and 30 μL of scintillation cocktail were added to each well before radioactivity reading. Readings were performed in a Trilux 1450 Microbeta radioactive counter (Perkin Elmer).

Human σ1 receptor = biological target: T1, Human σ1 receptor (Homo sapiens, UniProt Q99720); assay: Human σ1 receptor radioligand assay ([3H](+)-pentazocine binding, transfected HEK-293 membranes); conditions: binding to σ1 receptor expressed as Ki; + also covers inhibition between 1% and 50%; read-out: σ-1 binding
T1 construct: expressed in transfected cells; host or cells: HEK-293
Description: Human σ1 Receptor Radioligand Assay
Transfected HEK-293 membranes (7 μg) were incubated with 5 nM of [^3H](+)-pentazocine in assay buffer containing Tris-HCl 50 mM at pH 8. NBS (non-specific binding) was measured by adding 10 μM haloperidol. The binding of the test compound was measured at either one concentration (% inhibition at 1 or 10 μM) or five different concentrations to determine affinity values (Ki). Plates were incubated at 37° C. for 120 minutes. After the incubation period, the reaction mix was then transferred to MultiScreen HTS, FC plates (Millipore), filtered and plates were washed 3 times with ice-cold 10 mM Tris-HCL (pH7.4). Filters were dried and counted at approximately 40% efficiency in a MicroBeta scintillation counter (Perkin-Elmer) using EcoScint liquid scintillation cocktail.

Chain of Human α2δ-1 subunit of Cav2.2 calcium channel (P54289 25-1103): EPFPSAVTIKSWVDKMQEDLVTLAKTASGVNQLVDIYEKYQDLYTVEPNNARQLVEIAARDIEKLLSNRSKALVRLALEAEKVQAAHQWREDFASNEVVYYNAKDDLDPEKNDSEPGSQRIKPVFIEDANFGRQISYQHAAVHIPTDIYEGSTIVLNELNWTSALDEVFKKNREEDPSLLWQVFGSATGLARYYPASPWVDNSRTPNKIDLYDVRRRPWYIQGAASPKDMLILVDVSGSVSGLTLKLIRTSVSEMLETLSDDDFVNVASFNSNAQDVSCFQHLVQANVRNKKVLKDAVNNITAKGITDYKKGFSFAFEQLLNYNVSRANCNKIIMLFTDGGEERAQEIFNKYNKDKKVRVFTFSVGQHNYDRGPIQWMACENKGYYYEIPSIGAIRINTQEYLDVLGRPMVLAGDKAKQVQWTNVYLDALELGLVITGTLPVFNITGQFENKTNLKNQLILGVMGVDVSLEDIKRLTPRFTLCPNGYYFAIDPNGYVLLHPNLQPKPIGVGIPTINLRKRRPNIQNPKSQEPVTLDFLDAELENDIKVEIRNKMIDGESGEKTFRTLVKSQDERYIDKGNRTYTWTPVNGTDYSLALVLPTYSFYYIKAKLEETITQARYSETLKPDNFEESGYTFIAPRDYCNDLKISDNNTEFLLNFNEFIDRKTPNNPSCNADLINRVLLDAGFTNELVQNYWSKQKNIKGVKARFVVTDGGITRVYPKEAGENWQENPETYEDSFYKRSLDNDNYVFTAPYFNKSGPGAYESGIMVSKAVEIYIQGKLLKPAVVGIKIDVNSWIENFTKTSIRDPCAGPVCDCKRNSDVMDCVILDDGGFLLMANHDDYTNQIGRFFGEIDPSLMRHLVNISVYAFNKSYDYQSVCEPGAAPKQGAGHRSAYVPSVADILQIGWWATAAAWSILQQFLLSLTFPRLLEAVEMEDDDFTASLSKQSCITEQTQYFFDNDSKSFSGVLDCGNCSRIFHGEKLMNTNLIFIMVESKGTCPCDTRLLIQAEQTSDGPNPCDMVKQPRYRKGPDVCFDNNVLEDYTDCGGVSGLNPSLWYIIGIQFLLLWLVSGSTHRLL
T1 sequence (Q99720 whole entry): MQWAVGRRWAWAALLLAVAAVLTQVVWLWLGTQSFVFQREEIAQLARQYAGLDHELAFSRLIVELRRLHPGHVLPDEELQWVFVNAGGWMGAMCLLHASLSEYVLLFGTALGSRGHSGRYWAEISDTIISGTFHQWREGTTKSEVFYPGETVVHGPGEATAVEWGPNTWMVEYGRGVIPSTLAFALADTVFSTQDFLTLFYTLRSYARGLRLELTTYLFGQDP

| Ki [1] | Ki (Human σ1 receptor) | Compound |
| --- | --- | --- |
| 0.5 to 5 µM | > 1000 nM | Cc1cc(C2CCCN(Cc3ccccc3)C2)n2nc(C)c(-c3ccncc3)c2n1 (centres unmarked) [Example 59, 7-(1-Benzylpiperidin-3-yl)-2,5-dimethyl-3-(pyridin-4-yl)pyrazolo[1,5-a]pyrimidine] |
| 0.5 to 5 µM | > 1000 nM | CCc1nn2c(C3CCCN(Cc4ccccc4)C3)ccnc2c1-c1ccncc1 (centres unmarked) [Example 60, 7-(1-Benzylpiperidin-3-yl)-2-ethyl-3-(pyridin-4-yl)pyrazolo[1,5-a]pyrimidine] |
| 0.5 to 5 µM | > 1000 nM | CNCc1cn(-c2cccc(-c3c(C)nn4c(C5CCCN(Cc6ccccc6)C5)ccnc34)c2)nn1 (centres unmarked) [Example 61, 1-(1-(3-(7-(1-Benzylpiperidin-3-yl)-2-methylpyrazolo[1,5-a]pyrimidin-3-yl)phenyl)-1H-1,2,3-triazol-4-yl)-N-methylmethanamine] |
| 0.5 to 5 µM | > 1000 nM | CNCc1cc(-c2c(C)nn3c(C4CCCN(Cc5ccccc5)C4)ccnc23)ccn1 (centres unmarked) [Example 62, 1-(4-(7-(1-Benzylpiperidin-3-yl)-2-methylpyrazolo[1,5-a]pyrimidin-3-yl)pyridin-2-yl)-N-methylmethanamine] |
| > 5 µM | > 1000 nM | Cc1cc2nccc(C3CCCN(Cc4ccccc4F)C3)n2n1 (centres unmarked) [Example 63, 7-(1-(2-Fluorobenzyl)piperidin-3-yl)-2-methylpyrazolo[1,5-a]pyrimidine] |
| > 5 µM | > 1000 nM | Cc1cc2nccc(C3CCCN(Cc4ccccn4)C3)n2n1 (centres unmarked) [Example 66, 2-Methyl-7-(1-(pyridin-2-ylmethyl)piperidin-3-yl)pyrazolo[1,5-a]pyrimidine] |
| > 5 µM | > 1000 nM | Cc1cc2nccc(C3CCCN(CCc4ccccc4)C3)n2n1 (centres unmarked) [Example 67, 2-Methyl-7-(1-phenethylpiperidin-3-yl)pyrazolo[1,5-a]pyrimidine] |
| > 5 µM | > 1000 nM | Cc1cc2nccc(C3CCCN(Cc4cccc(O)c4)C3)n2n1 (centres unmarked) [Example 68, 3-((3-(2-Methylpyrazolo[1,5-a]pyrimidin-7-yl)piperidin-1-yl)methyl)phenol] |
| > 5 µM | > 1000 nM | CCN1CCCC(c2ccnc3c(-c4ccncc4)c(C)nn23)C1 (centres unmarked) [Example 69, 7-(1-Ethylpiperidin-3-yl)-2-methyl-3-(pyridin-4-yl)pyrazolo[1,5-a]pyrimidine] |
| > 5 µM | > 1000 nM | CCCN1CCCC(c2ccnc3c(-c4ccncc4)c(C)nn23)C1 (centres unmarked) [Example 70, 2-Methyl-7-(1-propylpiperidin-3-yl)-3-(pyridin-4-yl)pyrazolo[1,5-a]pyrimidine] |
| > 5 µM | > 1000 nM | Cc1nn2c(C3CCCN(CC(C)C)C3)ccnc2c1-c1ccncc1 (centres unmarked) [Example 71, 7-(1-Isobutylpiperidin-3-yl)-2-methyl-3-(pyridin-4-yl)pyrazolo[1,5-a]pyrimidine] |
| > 5 µM | < 500 nM | Cc1cnc2c(-c3ccncc3)cnn2c1C1CCCN(CCc2ccccc2)C1 (centres unmarked) [Example 73, 6-Methyl-7-(1-phenethylpiperidin-3-yl)-3-(pyridin-4-yl)pyrazolo[1,5-a]pyrimidine] |
| 0.5 to 5 µM | > 1000 nM | Cc1ccccc1CN1CCCC(c2ccnc3c(-c4ccncc4)c(C)nn23)C1 (centres unmarked) [Example 75, 2-Methyl-7-(1-(2-methylbenzyl)piperidin-3-yl)-3-(pyridin-4-yl)pyrazolo[1,5-a]pyrimidine] |
| 0.5 to 5 µM | 500 to 1000 nM | Cc1ccc(CN2CCCC(c3ccnc4c(-c5ccncc5)c(C)nn34)C2)cc1 (centres unmarked) [Example 76, 2-Methyl-7-(1-(4-methylbenzyl)piperidin-3-yl)-3-(pyridin-4-yl)pyrazolo[1,5-a]pyrimidine] |
| 0.5 to 5 µM | > 1000 nM | CNCCN(C)c1cc2nccc(C3CCCN(Cc4ccccc4)C3)n2n1 (centres unmarked) [Example 81, N^1-(7-(1-Benzylpiperidin-3-yl)pyrazolo[1,5-a]pyrimidin-2-yl)-N^1,N^2-dimethylethane-1,2-diamine] |
| 0.5 to 5 µM | > 1000 nM | CN[C@@H]1CCN(c2cc3nccc([C@@H]4CCCN(Cc5ccccc5)C4)n3n2)C1 [Example 84, (R)-1-(7-((R)-1-Benzylpiperidin-3-yl)pyrazolo[1,5-a]pyrimidin-2-yl)-N-methylpyrrolidin-3-amine] |
| 0.5 to 5 µM | > 1000 nM | CN[C@H]1CCN(c2cc3nccc([C@@H]4CCCN(Cc5ccccc5)C4)n3n2)C1 [Example 86, (S)-1-(7-((R)-1-Benzylpiperidin-3-yl)pyrazolo[1,5-a]pyrimidin-2-yl)-N-methylpyrrolidin-3-amine] |
| 0.5 to 5 µM | 500 to 1000 nM | Cc1nn2c(C3CCCN(Cc4ccccc4)C3)ccnc2c1N1CCCC1 (centres unmarked) [Example 89, 7-(1-Benzylpiperidin-3-yl)-2-methyl-3-(pyrrolidin-1-yl)pyrazolo[1,5-a]pyrimidine] |
| > 5 µM | > 1000 nM | Cc1nn2c(C3CCCN(Cc4ccccc4)C3)ccnc2c1N (centres unmarked) [Example 90, 7-(1-Benzylpiperidin-3-yl)-2-methylpyrazolo[1,5-a]pyrimidin-3-amine] |
| 0.5 to 5 µM | > 1000 nM | N#Cc1cc2nccc(C3CCCN(Cc4ccccc4)C3)n2n1 (centres unmarked) [Example 91, 7-(1-Benzylpiperidin-3-yl)pyrazolo[1,5-a]pyrimidine-2-carbonitrile] |

Continued, molecule first:

| Compound | Ki [1] | Ki (Human σ1 receptor) |
| --- | --- | --- |
| CCCCN1CCCC(c2ccnc3cc(C)nn23)C1 (centres unmarked) [Example 64, 7-(1-Butylpiperidin-3-yl)-2-methylpyrazolo[1,5-a]pyrimidine] | > 5 µM | < 500 nM |
| Cc1cc2nccc(C3CCCN(Cc4c(F)cccc4F)C3)n2n1 (centres unmarked) [Example 65, 7-(1-(2,6-Difluorobenzyl)piperidin-3-yl)-2-methylpyrazolo[1,5-a]pyrimidine] | 0.5 to 5 µM | > 1000 nM |
| Cc1nn2c(C3CCCN(Cc4ccccn4)C3)ccnc2c1-c1ccncc1 (centres unmarked) [Example 72, 2-Methyl-7-(1-(pyridin-2-ylmethyl)piperidin-3-yl)-3-(pyridin-4-yl)pyrazolo[1,5-a]pyrimidine] | 0.5 to 5 µM | > 1000 nM |
| Cc1cnc2c(-c3ccncc3)cnn2c1C1CCCN(Cc2ccccn2)C1 (centres unmarked) [Example 74, 6-Methyl-7-(1-(pyridin-2-ylmethyl)piperidin-3-yl)-3-(pyridin-4-yl)pyrazolo[1,5-a]pyrimidine] | 0.5 to 5 µM | > 1000 nM |
| Cc1cccc(CN2CCCC(c3ccnc4c(-c5ccncc5)c(C)nn34)C2)c1 (centres unmarked) [Example 77, 2-Methyl-7-(1-(3-methylbenzyl)piperidin-3-yl)-3-(pyridin-4-yl)pyrazolo[1,5-a]pyrimidine] | > 5 µM | > 1000 nM |
| c1ccc(CN2CCCC(c3ccnc4cc(N5CCCC5)nn34)C2)cc1 (centres unmarked) [Example 78, 7-(1-Benzylpiperidin-3-yl)-2-(pyrrolidin-1-yl)pyrazolo[1,5-a]pyrimidine] | > 5 µM | 500 to 1000 nM |
| CN(CCO)c1cc2nccc(C3CCCN(Cc4ccccc4)C3)n2n1 (centres unmarked) [Example 79, 2-((7-(1-Benzylpiperidin-3-yl)pyrazolo[1,5-a]pyrimidin-2-yl)(methyl)amino)ethanol] | > 5 µM | > 1000 nM |
| CN(CCN)c1cc2nccc(C3CCCN(Cc4ccccc4)C3)n2n1 (centres unmarked) [Example 80, N^1-(7-(1-Benzylpiperidin-3-yl)pyrazolo[1,5-a]pyrimidin-2-yl)-N^1-methylethane-1,2-diamine] | 0.5 to 5 µM | > 1000 nM |
| CN(c1cc2nccc(C3CCCN(Cc4ccccc4)C3)n2n1)C1CCNCC1 (centres unmarked) [Example 82, 7-(1-Benzylpiperidin-3-yl)-N-methyl-N-(piperidin-4-yl)pyrazolo[1,5-a]pyrimidin-2-amine] | 0.5 to 5 µM | > 1000 nM |
| CNCCNc1cc2nccc(C3CCCN(Cc4ccccc4)C3)n2n1 (centres unmarked) [Example 83, N^1-(7-(1-Benzylpiperidin-3-yl)pyrazolo[1,5-a]pyrimidin-2-yl)-N^2-methylethane-1,2-diamine] | 0.5 to 5 µM | > 1000 nM |
| CN[C@H]1CCN(c2cc3nccc([C@H]4CCCN(Cc5ccccc5)C4)n3n2)C1 [Example 85, (S)-1-(7-((S)-1-Benzylpiperidin-3-yl)pyrazolo[1,5-a]pyrimidin-2-yl)-N-methylpyrrolidin-3-amine] | > 5 µM | > 1000 nM |
| CN[C@@H]1CCN(c2cc3nccc([C@H]4CCCN(Cc5ccccc5)C4)n3n2)C1 [Example 87, (R)-1-(7-((S)-1-Benzylpiperidin-3-yl)pyrazolo[1,5-a]pyrimidin-2-yl)-N-methylpyrrolidin-3-amine] | 0.5 to 5 µM | > 1000 nM |
| c1ccc(CN2CCCC(c3ccnc4c(N5CCCC5)cnn34)C2)cc1 (centres unmarked) [Example 88, 7-(1-Benzylpiperidin-3-yl)-3-(pyrrolidin-1-yl)pyrazolo[1,5-a]pyrimidine] | > 5 µM | 500 to 1000 nM |
| CN(C)Cc1cc2nccc(C3CCCN(Cc4ccccc4)C3)n2n1 (centres unmarked) [Example 92, 1-(7-(1-Benzylpiperidin-3-yl)pyrazolo[1,5-a]pyrimidin-2-yl)-N,N-dimethylmethanamine] | 0.5 to 5 µM | > 1000 nM |
